# Experimental data taken from patent publication US20210113560A1, “METHOD OF TREATING FIBROTIC DISEASE” (BLADE THERAPEUTICS, INC., priority 2018, published 2021).
# Peptide text beside a SMILES is read from it. * marks the point of attachment. Cbz = O=C(OCc1ccccc1)*
# Target: T1, CAPN2 (Homo sapiens, UniProt P17655)
# T1 sequence (P17655 20-700 limits assumed): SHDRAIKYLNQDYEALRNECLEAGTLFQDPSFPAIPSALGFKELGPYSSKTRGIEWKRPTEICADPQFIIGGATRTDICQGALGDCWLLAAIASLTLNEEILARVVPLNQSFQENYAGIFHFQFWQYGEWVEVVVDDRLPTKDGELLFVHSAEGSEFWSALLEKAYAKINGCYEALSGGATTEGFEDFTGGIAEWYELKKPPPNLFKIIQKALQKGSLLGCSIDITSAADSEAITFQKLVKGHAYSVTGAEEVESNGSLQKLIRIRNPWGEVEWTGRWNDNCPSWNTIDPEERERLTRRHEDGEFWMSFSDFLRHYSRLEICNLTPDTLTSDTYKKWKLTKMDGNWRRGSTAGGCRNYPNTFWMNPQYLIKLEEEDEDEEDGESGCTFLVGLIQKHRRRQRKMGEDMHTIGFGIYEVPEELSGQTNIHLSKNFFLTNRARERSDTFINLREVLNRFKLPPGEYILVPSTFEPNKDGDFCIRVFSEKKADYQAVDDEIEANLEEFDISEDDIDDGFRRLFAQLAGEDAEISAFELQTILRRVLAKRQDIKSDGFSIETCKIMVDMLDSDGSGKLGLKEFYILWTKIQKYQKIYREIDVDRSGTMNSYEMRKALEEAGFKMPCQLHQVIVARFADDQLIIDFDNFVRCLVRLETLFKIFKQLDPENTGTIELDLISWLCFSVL
# T1 sequence (P04632 1-268 partner): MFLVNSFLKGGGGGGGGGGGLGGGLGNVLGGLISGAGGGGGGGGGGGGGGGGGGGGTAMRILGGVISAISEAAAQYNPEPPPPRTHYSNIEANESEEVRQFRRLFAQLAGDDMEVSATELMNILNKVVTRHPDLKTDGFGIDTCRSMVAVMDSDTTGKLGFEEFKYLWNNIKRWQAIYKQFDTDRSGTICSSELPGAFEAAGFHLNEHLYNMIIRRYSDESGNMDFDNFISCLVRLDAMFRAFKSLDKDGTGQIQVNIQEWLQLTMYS
# Test: Activity based probe (ABP) off-rate assay of CAPN2 inhibitors, SDS-PAGE readout
# Assay type: binding
# Settings: t1/2=0.693/k from first order decay fit; complex diluted ten-fold into 10 uM ABP; time points 0-24 hours
# Description: FIG. 2: Dissociation of Compound 10 from calpain 2 (CAPN2). Complexes of Compound 10 with CAPN2 were generated, followed by dilution into an excess of Compound 29 (a probe for unbound CAPN2). Samples were taken at the time points (lanes 1-6 for 0, 1, 2, 4, 7 and 24 hr respectively) and analyzed by gel electrophoresis to determine the amount of Compound 29 probe incorporation. Lanes 7 and 8 reflect negative and positive controls for probe labeling, respectively. The dissociation rate and half-life for the Compound 10-CAPN2 complex was then calculated.
# A fluorescently labeled irreversible activity based probe (ABP) was used to measure off rates of CAPN2 inhibitors as follows. The ABP molecule contains a fluoro-methyl ketone warhead that irreversibly reacts with the active site cysteine nucleophile of CAPN enzymes. ABP is also labeled with the Alexa 647 fluorophore which allows for sensitive quantitation of the CAPN2.ABP adduct.
# The assay is typically performed by pre-incubating 2 uM CAPN2 with […] test inhibitor for 30 minutes in assay buffer (50 mM Tris-HCl, 100 mM NaCl, 2 mM CaCl2, 1 mM DTT, 0.02% Brij-35, pH7.4). This incubation mixture (containing the CAPN2.inhibitor complex) is diluted ten-fold into the same assay buffer containing 10 uM ABP. This is time zero at which an aliquot is immediately withdrawn and quenched by adding denaturing SDS-PAGE loading buffer and heating at 95° C. for 5 minutes. Additional aliquots are typically withdrawn and quenched at time points of 0.5, 1, 2, 4, 7, 24 hours. Quenched samples are stored frozen at −80° C. until SDS-PAGE analysis.
# For a given test inhibitor, all time points are run on the same gel with the following two control samples. An assay minimum control is prepared by pre-incubating 2 uM CAPN2 in assay buffer for 1 hour. The incubation mixture is diluted, ten-fold into the same assay buffer containing 10 uM ABP, reacted for 30 minutes and quenched. After the initial 1 hour incubation, the CAPN2 enzyme is autolytically degraded and should generate little to no signal. An assay maximum control is prepared by adding 10 uM ABP to 0.2 uM CAPN2 in assay buffer and incubating for 30 minutes and quenching.
# After SDS-PAGE, the gel is scanned using a LAS4000 ImageQuant platform to quantify the Alexa 647 intensity at ˜75 kDa (molecular weight of full length activated CAPN2). The minimum and maximum controls on each gel are used to calculate percentage of test compound bound at each time point. […] Using the equation t1/2=0.693/k, the off rate (k) is converted to and reported as CAPN2.inhibitor complex half-life (t1/2).
row,Structure (SMILES),Half-life of Compound-CAPN2 Complex [h]
1,NC(=O)C(=O)C(Cc1ccccc1)NC(=O)c1nsnc1-c1ccncn1 (centres unmarked) [Compound 34],1.27
2,Cc1c(F)cccc1-c1nsnc1C(=O)NC(Cc1ccccc1)C(=O)C(N)=O (centres unmarked) [Compound 36],0.75
3,CC(C)C(NC(=O)OCc1ccccc1)C(=O)NC(Cc1ccccc1)C(=O)C(N)=O (centres unmarked) [Compound 30],17.77
4,O=C(NC1CC1)C(=O)C(Cc1ccccc1)NC(=O)c1nsnc1-c1ccccc1 (centres unmarked) [Compound 6],0.383
5,Cc1cc(C(=O)NC(Cc2ccccc2)C(=O)C(N)=O)n(-c2ccccn2)n1 (centres unmarked) [Compound 5],0.467
6,Cn1cc(C(=O)N[C@@H](Cc2ccccc2)C(=O)C(N)=O)c(-c2ccccc2)n1 [Compound 26],0.483
7,Cn1cc(C(=O)NC(Cc2ccccc2)C(=O)C(N)=O)c(-c2cccc(F)c2)n1 (centres unmarked) [Compound 13],0.633
8,NC(=O)C(=O)C(Cc1ccccc1)NC(=O)c1nsnc1-c1ccccc1 (centres unmarked) [Compound 24],6.6
9,CC[C@H](NC(=O)[C@H](CC(C)C)NC(=O)OCc1ccccc1)C(=O)C(=O)NCc1cc(OC)cc(OC)c1 [Compound 23],1
10,NC(=O)C(=O)C(Cc1ccccc1)NC(=O)c1cn(C(F)F)nc1-c1ccccc1 (centres unmarked) [Compound 17],2.1
11,Cc1cc(C(=O)N[C@@H](Cc2ccccc2)C(=O)C(N)=O)n(-c2ccccc2)n1 [Compound 21],2.7
12,Cn1cc(C(=O)NC(Cc2ccccc2)C(=O)C(N)=O)c(-c2ccccc2F)n1 (centres unmarked) [Compound 16],0.867
13,Cc1nc(-c2ccccc2F)c(C(=O)NC(Cc2ccccc2)C(=O)C(=O)O)o1 (centres unmarked) [Compound 40],0.467
14,NC(=O)C(=O)C(Cc1ccccc1)NC(=O)c1nsnc1-c1cccc2c1OC(F)(F)O2 (centres unmarked) [Compound 2],9.63
15,NC(=O)C(=O)C(Cc1ccccc1)NC(=O)c1nsnc1-c1ccccn1 (centres unmarked) [Compound 32],2.32
16,NC(=O)C(=O)C(Cc1ccccc1)NC(=O)c1cn(C(F)F)nc1-c1cccc2cnccc12 (centres unmarked) [Compound 1],2.8
17,Cc1nc(-c2ccccc2)c(C(=O)NC(Cc2ccccc2)C(=O)C(N)=O)o1 (centres unmarked) [Compound 14],5.4
18,CCN(CC)Cc1ccc(/C=C/c2ccccc2C(=O)NC(Cc2ccccc2)C(=O)C(N)=O)cc1 (centres unmarked) [Compound 27],0.9

row,Structure (SMILES),Half-life of Compound-CAPN2 Complex [h]
1,Cc1nc(-c2ccccc2F)c(C(=O)NC(Cc2ccccc2)C(=O)C(N)=O)o1 (centres unmarked) [Compound 10],2.7
2,Cc1nc(-c2cccc(F)c2)c(C(=O)NC(Cc2ccccc2)C(=O)C(N)=O)o1 (centres unmarked) [Compound 11],3.53
3,Cc1cncc(-c2nn(C(F)F)cc2C(=O)NC(Cc2ccccc2)C(=O)C(N)=O)c1 (centres unmarked) [Compound 39],0.533
4,NC(=O)C(=O)C(Cc1ccccc1)NC(=O)c1nsnc1-c1ccccc1F (centres unmarked) [Compound 18],5.5
5,O=C(NC1CC1)C(=O)C(Cc1ccccc1)NC(=O)[C@H]1CCC(=O)N1Cc1ccccc1 (some centres unmarked) [Compound 9],0.083
6,NC(=O)C(=O)[C@H](Cc1ccccc1)NC(=O)c1cnoc1-c1ccccc1 [Compound 25],1.6
7,NC(=O)C(=O)C(Cc1ccccc1)NC(=O)c1cn(C2CC2)nc1-c1ccccc1 (centres unmarked) [Compound 12],0.333
8,CC(C)[C@H](NC(=O)OCc1ccccc1)C(=O)N[C@H](C=O)Cc1ccccc1 [Compound 28] (Cbz-Val-Phe-aldehyde),3
9,NC(=O)C(=O)C(Cc1ccccc1)NC(=O)c1c(C(F)(F)F)ccc(Cl)c1F (centres unmarked) [Compound 8],2.4
10,Cn1cc(C(=O)NC(Cc2ccccc2)C(=O)C(N)=O)c(-c2cccc3c2OC(F)(F)O3)n1 (centres unmarked) [Compound 41],0.45
11,O=CC(Cc1ccccc1)NC(=O)c1nsnc1-c1ccccc1 (centres unmarked) [Compound 7],1.05
12,Cn1cc(C(=O)NC(Cc2ccccc2)C(=O)C(N)=O)c(-c2cccc3cn[nH]c23)n1 (centres unmarked) [Compound 37],0.65
13,Cn1cc(C(=O)NC(Cc2ccccc2)C(=O)C(N)=O)c(-c2cccc3oc(=O)[nH]c23)n1 (centres unmarked) [Compound 38],0.65
14,O=C(O)C(=O)C(Cc1ccccc1)NC(=O)c1nsnc1-c1ccccc1 (centres unmarked) [Compound 33],1.87
15,CC(C)[C@@H](NC(=O)CCCNC(=O)CCCCCC1(C)C(/C=C/C=C/C=C2/N(CCCS(=O)(=O)O)c3ccccc3C2(C)C)=[N+](CCCS(=O)(=O)O)c2ccc(S(=O)(=O)O)cc21)C(=O)NC(Cc1ccccc1)C(=O)CF (some centres unmarked) [Compound 29],7
16,NC(=O)C(=O)C(Cc1ccccc1)NC(=O)c1nsnc1-c1cccc(F)c1 (centres unmarked) [Compound 19],2.8
17,NC(=O)C(=O)C(Cc1ccccc1)NC(=O)c1nsnc1-c1cnccn1 (centres unmarked) [Compound 35],1.03
18,NC(=O)C(=O)C(Cc1ccccc1)NC(=O)c1nsnc1-c1cccc2c1OC(F)(F)O2 (centres unmarked) [Compound 31],4.87

# Target: T2, CatK (Homo sapiens, UniProt P43235)
# T2 sequence (P43235 115-329): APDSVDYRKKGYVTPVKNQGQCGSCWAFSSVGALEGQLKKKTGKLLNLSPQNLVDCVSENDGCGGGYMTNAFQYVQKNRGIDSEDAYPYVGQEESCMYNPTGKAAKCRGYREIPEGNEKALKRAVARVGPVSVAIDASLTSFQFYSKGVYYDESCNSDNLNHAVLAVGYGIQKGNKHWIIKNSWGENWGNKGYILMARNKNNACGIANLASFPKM
# Test: Dilution of enzyme-inhibitor complex into substrate, reactivation over time (FIG. 1)
# Assay type: biochemical
# Settings: compared to unbound CatK control
# Description: (§1) FIG. 1: Dissociation of Compound 10 from calpain 2 (CAPN2). Complexes of Compound 10 with either CatK or CAPN2 were generated, followed by dilution into substrate-containing assay wells to initiate data collection. Reactivation of the target enzymes due to dissociation of the enzyme-inhibitor complexes was observed as a function of time. […] CAPN2 control (upper dashed line). Thus, inhibition of CAPN2 by Compound 10 is retained even in the absence of excess Compound 10. Further, this effect is selective and provides a basis for specific action of Compound 10 against CAPN2.
row,Structure (SMILES),Reactivation of CatK after dilution of the CatK-compound complex
1,Cc1nc(-c2ccccc2F)c(C(=O)NC(Cc2ccccc2)C(=O)C(N)=O)o1 (centres unmarked) [Compound 10],almost an immediate reactivation

# Target: T3, calpain 2 (CAPN2) (Homo sapiens, UniProt P17655)
# T3 sequence (P17655 20-700 limits assumed): T1 sequence (P17655 20-700 limits assumed)
# T3 sequence (P04632 1-268 partner): T1 sequence (P04632 1-268 partner)
# Test: as above
# Assay type: biochemical
# Settings: relative to unbound CAPN2 control; absence of excess compound
# Description: as §1
row,Structure (SMILES),Retention of CAPN2 inhibition after dilution of the complex
1,Cc1nc(-c2ccccc2F)c(C(=O)NC(Cc2ccccc2)C(=O)C(N)=O)o1 (centres unmarked) [Compound 10],inhibition is retained
